Patent US20130018062A1, “Pain therapy with metabolism blocked antifolates” (priority 2011, published 2013)

Tests used:
[1] = system: patients with Rheumatoid Arthritis; test: Pain assessment by VAS scale in patients treated with M-Trex (Example-1); assay type: in vivo, human
Text: Of special importance was the novel observation of the ability of M-Trex to substantially reduce Pain in human subjects who were suffering from inflammation caused by autoimmune response. [O. Castaneda and M. G. Nair. Controlled trial of methotrexate versus CH-1504 in the treatment of Rheumatoid Arthritis. The J. Rheumatology. 33, 862-64, 2006.] […] Another unique observation with M-Trex was its ability to shrink human tumor xenografts in immuno-compromised mice. The ability of metabolism blocked antifolate M-Trex to shrink rapidly proliferating human tissues is representative and results in Pain reduction secondary to such proliferation. [EXAMPLE-1]** ** Pain assessment was made using the VAS scale every four weeks. Patients were treated with a daily oral dose of 7.5 mg/day of M-Trex during the duration of measurements. […] Pain as assessed by VAS was reduced from a scale of 7.2 to 1.8.
There are three general accepted methods for the evaluation of Pain in patients suffering from a number of diseases. They are Visual Analog Scale (VAS); Numeric rating Scale (NRS) and Verbal Categorical Rating Scale […]. Of these three assessment methods VAS is considered to be most reliable in a majority of cases to evaluate and quantify the magnitude of the perception of Pain. […]

A549/ATCC (NSCLC) = test: Growth inhibition of human tumor cells in culture (NCI); assay type: cell-based
Text: (§1) The preceding data collected at the National Cancer Institute summarize the ability of M-Trex to inhibit 50% of the growth of selected tumor cells in culture. The values are expressed as Log10 GI50 values all of which are lower than 10^−8M. In the same table a comparison is made of the respective values of TGI (Total Growth Inhibition) for M-Trex and MTX. […] In addition, the Log10 GI50 values of M-Trex was lower than −8.00 for the following cell lines: NSCLC, A549/ATCC and NCI H23; Colon Cancer, HCT 116, HCT 29 and SW 620; CNS Cancer, SF 268; Melanoma M 14 and UACC 62; Ovarian Cancer, OVCAR-8; Renal Cancer, ACHN, CAKI-1, SN 12C, and UO 31; Prostate Cancer, PC 3 and Breast cancer, MDA-MB-435 and MDA-N. The MG_MID value of MTX for all 49 human tumor cell lines evaluated at NCI-DTP program was −7.05. […] The tumors and sarcomas are solid while leukemia and lymphoma are liquid tumors.

ACHN (Renal Cancer) = test: as above; assay type: cell-based
Text: as §1

CCRF-CEM (Leukemia) = test: as above; assay type: cell-based
Text: as §1

HCT 116 (Colon Cancer) = test: as above; assay type: cell-based
Text: as §1

K562 (Leukemia) = test: as above; assay type: cell-based; conditions: logarithmic value
Text: as §1

M 14 (Melanoma) = test: as above; assay type: cell-based
Text: as §1

MCF-7 (Breast Cancer) = test: as above; assay type: cell-based; conditions: logarithmic value
Text: as §1

[2] = system: MCF7-ADR-RES (Breast Cancer); test: as above; assay type: cell-based
Text: as §1

[3] = system: MDA-MB-435 (Breast cancer); test: as above; assay type: cell-based
Text: as §1

MDA-N (Breast cancer) = test: as above; assay type: cell-based
Text: as §1

MOLT-4 (Leukemia) = test: as above; assay type: cell-based; conditions: logarithmic value
Text: as §1

NCI H23 (NSCLC) = test: as above; assay type: cell-based
Text: as §1

OVCAR-8 (Ovarian Cancer) = test: as above; assay type: cell-based
Text: as §1

PC 3 (Prostate Cancer) = test: as above; assay type: cell-based
Text: as §1

SF 268 (CNS Cancer) = test: as above; assay type: cell-based
Text: as §1

SF 539 (CNS Cancer) = test: as above; assay type: cell-based; conditions: logarithmic value
Text: as §1

SN 12C (Renal Cancer) = test: as above; assay type: cell-based
Text: as §1

SR (Leukemia) = test: as above; assay type: cell-based; conditions: logarithmic value
Text: as §1

SW 620 (Colon Cancer) = test: as above; assay type: cell-based
Text: as §1

UACC 62 (Melanoma) = test: as above; assay type: cell-based
Text: as §1

UO 31 (Renal Cancer) = test: as above; assay type: cell-based
Text: as §1

Structure (SMILES): C=C(CC(NC(=O)c1ccc(CCc2ccc3nc(N)nc(N)c3c2)cc1)C(=O)O)C(=O)O (stereo not shown) [M-Trex, 4′-methylene-5,8-10-trideazaaminopterin]
- Pain as assessed by VAS ([1]; starting value from which pain was reduced, Rheumatoid Arthritis patients): 7.2
- Pain as assessed by VAS ([1]; value reached on daily oral dose of 7.5 mg/day of M-Trex, assessed every four weeks): 1.8
- Log10 GI50 (A549/ATCC (NSCLC)): lower than −8.00
- Log10 GI50 (ACHN (Renal Cancer)): lower than −8.00
- TGI (Total Growth Inhibition) (CCRF-CEM (Leukemia); logarithmic value): <−8.00
- Log10 GI50 (CCRF-CEM (Leukemia); value is Log10 of GI50): <−8.00 M
- Log10 GI50 (HCT 116 (Colon Cancer)): lower than −8.00
- TGI (Total Growth Inhibition) (K562 (Leukemia)): <−8.00
- Log10 GI50 (M 14 (Melanoma)): lower than −8.00
- TGI (Total Growth Inhibition) (MCF-7 (Breast Cancer)): −6.32
- TGI (Total Growth Inhibition) ([2]; logarithmic value): −7.26
- Log10 GI50 ([2]; value is Log10 of GI50): <−8.00 M
- Log10 GI50 [3]: lower than −8.00
- Log10 GI50 (MDA-N (Breast cancer)): lower than −8.00
- TGI (Total Growth Inhibition) (MOLT-4 (Leukemia)): −7.40
- Log10 GI50 (NCI H23 (NSCLC)): lower than −8.00
- Log10 GI50 (OVCAR-8 (Ovarian Cancer)): lower than −8.00
- Log10 GI50 (PC 3 (Prostate Cancer)): lower than −8.00
- Log10 GI50 (SF 268 (CNS Cancer)): lower than −8.00
- TGI (Total Growth Inhibition) (SF 539 (CNS Cancer)): −6.3
- Log10 GI50 (SN 12C (Renal Cancer)): lower than −8.00
- TGI (Total Growth Inhibition) (SR (Leukemia)): <−8.00
- Log10 GI50 (SW 620 (Colon Cancer)): lower than −8.00
- Log10 GI50 (UACC 62 (Melanoma)): lower than −8.00
- Log10 GI50 (UO 31 (Renal Cancer)): lower than −8.00
